# What was measured:
# Assay type in all cases: physicochemical
# [1] = stress stability testing, HPLC related substances and degradation products; parameters: HPLC related substance RRt 0.10 / HPLC related substance RRt 0.11 / HPLC related substance RRt 0.16 / HPLC related substance RRt 0.20 / HPLC related substance RRt 1.45 / HPLC related substance RRt 1.59 / HPLC related substance RRt 1.61 / HPLC related substance RRt 2.20 / HPLC related substance RRt 2.25: unit not given here
# Protocol: Illustratively, it was tested under regular pharmaceutical tests such as stress condition test (Table 1) and was compared with chemical stability of the starting amorphous esomeprazole magnesium or esomeprazole Mg dihydrate form B (Table 2).
# [2] = physical (polymorphic) stability under stress conditions; conditions: 14 days 40° C./75% relative humidity, 7 days 60° C.
# Protocol: In addition, also physical stability of esomeprazole magnesium dihydrate form A obtained according to the present invention was tested.
# [3] = removal of residual solvents by drying (Comparative Example 2); conditions: drying at high temperatures
# Source text: Further removing of residual solvents was studied on amorphous esomeprazole magnesium by drying.
# [4] = 40° C./75 RH, open dish, 14 days, open vial
compound,measurement,setting,value
COc1ccc2[n-]c([S@@+]([O-])Cc3ncc(C)c(OC)c3C)nc2c1.COc1ccc2[n-]c([S@@+]([O-])Cc3ncc(C)c(OC)c3C)nc2c1.O.O.[Mg+2],chemical stability compared among the three forms of esomeprazole magnesium,"[1]; stress stability testing, all three forms compared",chemically the most stable form
"magnesium bis(5-methoxy-2-[(S)-[(4-methoxy-3,5-dimethyl-2-pyridinyl)methyl]sulfinyl]-1H-benzimidazole) [Esomeprazole magnesium dihydrate form A]",Chromatographic purity,[1]; [4],99.85
same,HPLC - Related substances and degradation products: Sum,[1]; [4],≦0.05
same,Chromatographic purity,"[1]; 60° C., 7 days, vial",99.82
same,HPLC - Related substances and degradation products: Sum,"[1]; 60° C., 7 days, vial",≦0.05
same,Chromatographic purity,[1]; Initial analysis,99.85
same,physical stability of the polymorphic form,[2],stable
"magnesium bis(5-methoxy-2-[(S)-[(4-methoxy-3,5-dimethyl-2-pyridinyl)methyl]sulfinyl]-1H-benzimidazole) [Esomeprazole magnesium dihydrate form B]",HPLC - Related substances and degradation products: Sum,[1]; [4],0.14
same,HPLC related substance RRt 1.59,[1]; [4],0.06
same,HPLC related substance RRt 1.61,[1]; [4],0.06
same,HPLC - Related substances and degradation products: Sum,"[1]; 60° C., 7 days, vial",0.07
same,HPLC related substance Omeprazole-N-methyl,"[1]; 60° C., 7 days, vial",0.07
same,HPLC - Related substances and degradation products: Sum,[1]; Initial analysis,<0.05
"magnesium bis(5-methoxy-2-[(S)-[(4-methoxy-3,5-dimethyl-2-pyridinyl)methyl]sulfinyl]-1H-benzimidazole) [Amorphous esomeprazole magnesium]",chemical stability on drying to remove residual solvents,[3],accompanied by chemical decomposition
same,HPLC - Related substances and degradation products: Sum,[1]; [4],0.43
same,HPLC related substance OMP-benzimidazole (Ph. Eur. Imp. A),[1]; [4],0.04
same,HPLC related substance RRt 0.10,[1]; [4],0.04
same,HPLC related substance RRt 0.11,[1]; [4],0.09
same,HPLC related substance RRt 0.16,[1]; [4],0.07
same,HPLC related substance RRt 0.20,[1]; [4],0.04
same,HPLC related substance RRt 1.45,[1]; [4],0.06
same,HPLC related substance RRt 2.20,[1]; [4],0.09
same,HPLC - Related substances and degradation products: Sum,"[1]; 60° C., 7 days, vial",0.79
same,HPLC related substance OMP-N-oxide (Ph. Eur. Imp. E),"[1]; 60° C., 7 days, vial",0.03
same,HPLC related substance OMP-N-sufone (Ph. Eur. Imp. D),"[1]; 60° C., 7 days, vial",0.03
same,HPLC related substance OMP-benzimidazole (Ph. Eur. Imp. A),"[1]; 60° C., 7 days, vial",0.06
same,HPLC related substance RRt 0.11,"[1]; 60° C., 7 days, vial",0.12
same,HPLC related substance RRt 0.16,"[1]; 60° C., 7 days, vial",0.18
same,HPLC related substance RRt 0.20,"[1]; 60° C., 7 days, vial",0.06
same,HPLC related substance RRt 1.45,"[1]; 60° C., 7 days, vial",0.15
same,HPLC related substance RRt 2.20,"[1]; 60° C., 7 days, vial",0.07
same,HPLC related substance RRt 2.25,"[1]; 60° C., 7 days, vial",0.09
same,HPLC - Related substances and degradation products: Sum,[1]; Initial analysis,0.10
same,HPLC related substance RRt 0.16,[1]; Initial analysis,0.06
same,HPLC related substance RRt 1.45,[1]; Initial analysis,0.04
